From patent US12104173B2, “Method for differentiation of human pluripotent stem cell lines in suspension culture” (AGENCY FOR SCIENCE, TECHNOLOGY AND RESEARCH, priority 2018, dated 2024) come the findings set out here.

The subject of assay [1] is O-neg hiPSC line (D5) expanded in agitated microcarrier cultures. Nature of the assay: DoE multifactorial analysis of KDR+ cells, O-neg hiPSC. In kind it is cell-based, human. Conditions: CHIR exposure for 24 hours, 4 days post differentiation. From the text:
(B) Plot of KDR levels (%) for respective conditions tested (day 4 post differentiation). Conditions 27, 28 and 29 are triplicates of the same condition tested. […] Act=Activin A; CHI=CHIR-99021 for 24 hr, CH2=CHIR-99021 from 24-48 hr; BMP=BMP4. Computed P-values are indicated below the chart.
These findings were also confirmed using an O-neg hiPSC line (D5) expanded in agitated microcarrier cultures (FIG. 6). […] In summary, from the Design of experiment analysis, it was established that a BMP4 dose of 10 to 50 ng/ml, Activin A dose of 25 to 50 ng/ml and exposure of CHIR for 24 hours at a dose of 6 to 12 μM would be efficient for the generation of KDR+ cells.
Design of experiments (DoE) using a resolution IV Fractional Factorial Design was performed using the MODDE software (Sartorius Stedim Biotech, Germany) to evaluate initial BMP4, Activin A and CHIR-99021, doses and duration of exposure for their effects on the following response factors: induction of KDR+ cells 4 days post mesoderm induction or total hematopoietic precursors generated 2 weeks post differentiation. […]

For a further assay, the system named is hES-3 hESC line. Nature of the assay: CHIR dose: hematopoietic/erythroid differentiation of agitated hPSC-MC aggregates. Conditions: for Erythroblast expansion Fold-expansion: optimal dose of CHIR-99021, 24 days in erythroblast expansion medium (static), cumulative. In kind it is cell-based, human. As for the experimental part: Human pluripotent stem cell-microcarrier (HPSC-MC) aggregates generated from different hPSC lines were differentiated using 3 different CHIR doses (5, 10 and 15 μM for 24 hours) and were evaluated for T-bra (day 2) and KDR+PDGFRβ− (day 4) expression by flow cytometry, induction of key hematopoietic transcription factors by RT-PCR (day 4), hematopoietic precursor expansion (day 14) and erythroblast expansion (day 42).
Table 2—Hematopoietic differentiation of nine human pluripotent stem cell (hPSC) lines, from expansion in agitated microcarrier culture to erythroblast expansion—This table summarises the different stages of differentiation; hPSC expansion, mesoderm induction, hematopoietic precursor and erythroblast expansion of multiple hPSC-MC aggregate lines differentiated with optimal dose of CHIR-99021. Fold-expansion of hPSC-MC aggregates following 7 days of agitated culture, hematopoietic precursors following 14 days of culture in methylcellulose medium and erythroblast expansion following 24 days in expansion medium are reported. Flow cytometric evaluation of % T-bra+ cells on day 2 and % KDR+ cells on day 4 during mesoderm induction, % CD43+ cells during hematopoietic precursor expansion, % CD235a+ cells and fetal hemoglobin expression during erythroblast expansion stage are summarised. Total erythroid cells per hPSC seeded on day 42 was calculated as number of embryoid bodies derived on day 4 per hPSC seeded*erythroblast fold expansion*percent CD235a+ erythroblast.
Analysis of Design of experiments (DoE) outcomes and evaluation of selected conditions generated by the MODDE® software allowed the development of an optimized protocol for hematopoietic mesoderm induction of human pluripotent stem cell-microcarrier (hPSC-MC) aggregates initially expanded under continuous agitation. Approximately 2 to 4 million hPSC-MC aggregates in 3 ml of Stemline® II medium were differentiated as follows: day 1; 30 ng/ml of BMP4, 50 ng/ml VEGF165, 12 μM CHIR-99021 (Selleck Chemicals, USA), 50 ng/ml Activin A, day 2; 30 ng/ml of BMP4, 50 ng/ml VEGF165, 50 ng/ml Activin A, day 3: 30 ng/ml of BMP4, 50 ng/ml VEGF165 and 20 ng/ml bFGF. Four days post-differentiation, single cells derived by TrypLE™ Express (ThermoFisher Scientific) treatment and strained through 40 μm cell strainers (Greiner Bio-one, Germany) were used for hematopoietic precursor and erythroblast expansion and erythroblast terminal maturation as detailed herein. Hematopoietic and erythroblast differentiation were monitored by flow cytometry, quantitative real-time PCR, immunoblotting and microscopic imaging. Oxygen binding affinity of differentiated erythroblast was determined using a Hemox Analyzer (TCS Scientific Corp, USA).
HPSC-MC aggregates were dissociated into single cells by treatment with TrypLE. Express (ThermoFisher Scientific) for 5 minutes at 37° C., passed through 40 μm cell strainer (Greiner Bio-one), centrifuged at 1300 rpm for 3 minutes to pellet cells, and rinsed once with phosphate buffered saline (PBS) before re-suspension in Stemline II medium. Two hundred thousand cells in 100 μl of Stemline II medium were transferred to a 6-well ultra-low attachment plate and cultured with Blast growth medium (BGM) for 2 weeks in static conditions as detailed herein.
Hematopoietic precursors were mixed with equal volume of Stemline II medium containing 50 ng/ml of SCF (STEMCELL. Technologies) and 3 U/ml EPO (Peprotech, USA), for an additional 7 days. Subsequently, cells were diluted 10-fold with PBS and pelleted by centrifugation at 3000 rpm for 10 minutes. […]

With `Cc1c[nH]c(-c2cnc(NCCNc3ccc(C#N)cn3)nc2-c2ccc(Cl)cc2Cl)n1` [CHIR-99021, 6-[[2-[[4-(2,4-Dichlorophenyl)-5-(5-methyl-1H-imidazol-2-yl)-2-pyrimidinyl]amino]ethyl]amino]-3-pyridinecarbonitrile], the “effect of factor on KDR+ cells (DoE)” value in assay [1] is “significant factors for increased KDR+ cells”. Further, the “fold-expansion of hematopoietic precursors” value with hES-3 hESC line (15 μM CHIR dose, day 14 post differentiation) is reported as 6.97±1.35 fold. Moreover, the “T-Bra+ cells” value in the assay on hES-3 hESC line (15 μM CHIR for 24 hours, day 2, flow cytometry) came to 18±3.82%. For the same compound, the “KDR+PDGFRβ- cells” value in the assay on hES-3 hESC line (15 μM CHIR for 24 hours, day 4, flow cytometry) worked out at 14.6±0.81%. Also, the “Total erythroid cells per hPSC seeded (day 42)” value with hES-3 hESC line (optimal dose of CHIR-99021) amounted to 244. Further, the “Hematopoietic precursor expansion % CD43” value in the assay with hES-3 hESC line (optimal dose of CHIR-99021, 14 days in methyl cellulose medium) is recorded as 42.8%. The “Hematopoietic precursor expansion Fold-expansion” value in the assay with hES-3 hESC line (optimal dose of CHIR-99021, 14 days in methyl cellulose medium (static)) came to 6.9 fold. Further, the “Erythroblast expansion Fold-expansion” value in the assay on hES-3 hESC line (day 42) was 324 fold; in the assay with hES-3 hESC line (day 42, listed as CHIR), 324±83.97 fold. For the same compound, the “Mesoderm induction % T-Bra” value with hES-3 hESC line (optimal dose of CHIR-99021, day 2) is recorded as 18%. The “Erythroblast expansion % CD235a+” value with hES-3 hESC line (optimal dose of CHIR-99021, erythroblast expansion stage) is 78.5%. Besides, in the assay on hES-3 hESC line (optimal dose of CHIR-99021, fetal hemoglobin, flow cytometry), the “Erythroblast expansion Hemoglobin expression” value amounted to 99.3.
